# According to ChEMBL document CHEMBL4004803, “Syntheses and antibacterial activity of soluble 9-bromo substituted indolizinoquinoline-5,12-dione derivatives” (Eur J Med Chem, 2017):
# Columns and labels:
# [1] = test system: Staphylococcus aureus; experiment: Antibacterial activity against methicillin-resistant Staphylococcus aureus 518036 clinical isolate after 20 to 24 hrs by two-fold microdilution method; format: functional
# [2] = test system: Staphylococcus aureus; experiment: Antibacterial activity against methicillin-resistant Staphylococcus aureus 221014 clinical isolate after 20 to 24 hrs by two-fold microdilution method; format: functional
# [3] = test system: Staphylococcus aureus; experiment: Antibacterial activity against methicillin-resistant Staphylococcus aureus 130031 clinical isolate after 20 to 24 hrs by two-fold microdilution method; format: functional
# [4] = test system: Staphylococcus aureus; experiment: Antibacterial activity against methicillin-resistant Staphylococcus aureus 122820-2 clinical isolate after 20 to 24 hrs by two-fold microdilution method; format: functional
# [5] = test system: Staphylococcus aureus; experiment: Antibacterial activity against methicillin-resistant Staphylococcus aureus 110910-2 clinical isolate after 20 to 24 hrs by two-fold microdilution method; format: functional
# [6] = test system: Staphylococcus aureus; experiment: Antibacterial activity against methicillin-resistant Staphylococcus aureus 122710-2 clinical isolate after 20 to 24 hrs by two-fold microdilution method; format: functional
# [7] = test system: Staphylococcus aureus; experiment: Antibacterial activity against methicillin-resistant Staphylococcus aureus 531026 clinical isolate after 20 to 24 hrs by two-fold microdilution method; format: functional
# [8] = test system: Staphylococcus aureus; experiment: Antibacterial activity against methicillin-resistant Staphylococcus aureus 1215028 clinical isolate after 20 to 24 hrs by two-fold microdilution method; format: functional
# [9] = test system: Staphylococcus aureus; experiment: Antibacterial activity against methicillin-resistant Staphylococcus aureus 1106003 clinical isolate after 20 to 24 hrs by two-fold microdilution method; format: functional
# [10] = test system: Staphylococcus aureus; experiment: Antibacterial activity against methicillin-resistant Staphylococcus aureus 1216052 clinical isolate after 20 to 24 hrs by two-fold microdilution method; format: functional
# [11] = test system: Staphylococcus aureus; experiment: Antibacterial activity against methicillin-resistant Staphylococcus aureus 519028 clinical isolate after 20 to 24 hrs by two-fold microdilution method; format: functional
# [12] = test system: Staphylococcus aureus; experiment: Antibacterial activity against methicillin-resistant Staphylococcus aureus 921026 clinical isolate after 20 to 24 hrs by two-fold microdilution method; format: functional
# [13] = test system: Staphylococcus aureus; experiment: Antibacterial activity against methicillin-resistant Staphylococcus aureus 110432 clinical isolate after 20 to 24 hrs by two-fold microdilution method; format: functional
# [14] = test system: Staphylococcus aureus; experiment: Antibacterial activity against methicillin-resistant Staphylococcus aureus 1026021 clinical isolate after 20 to 24 hrs by two-fold microdilution method; format: functional
# [15] = test system: Staphylococcus aureus; experiment: Antibacterial activity against methicillin-resistant Staphylococcus aureus 829034 clinical isolate after 20 to 24 hrs by two-fold microdilution method; format: functional
# [16] = test system: Staphylococcus aureus; experiment: Antibacterial activity against methicillin-resistant Staphylococcus aureus 1107027 clinical isolate after 20 to 24 hrs by two-fold microdilution method; format: functional
# [17] = test system: Staphylococcus aureus; experiment: Antibacterial activity against methicillin-resistant Staphylococcus aureus 1101016 clinical isolate after 20 to 24 hrs by two-fold microdilution method; format: functional
# [18] = test system: Staphylococcus aureus; experiment: Antibacterial activity against methicillin-resistant Staphylococcus aureus 215073 clinical isolate after 20 to 24 hrs by two-fold microdilution method; format: functional
# [19] = test system: Staphylococcus aureus; experiment: Antibacterial activity against methicillin-resistant Staphylococcus aureus 305026 clinical isolate after 20 to 24 hrs by two-fold microdilution method; format: functional
# [20] = test system: Staphylococcus aureus; experiment: Antibacterial activity against methicillin-resistant Staphylococcus aureus 1128040 clinical isolate after 20 to 24 hrs by two-fold microdilution method; format: functional
# [21] = test system: Staphylococcus aureus; experiment: Antibacterial activity against methicillin-resistant Staphylococcus aureus GLH14 clinical isolate after 20 to 24 hrs by two-fold microdilution method; format: functional
# [22] = test system: Staphylococcus aureus; experiment: Antibacterial activity against methicillin-resistant Staphylococcus aureus 212014 clinical isolate after 20 to 24 hrs by two-fold microdilution method; format: functional
# [23] = test system: Staphylococcus aureus; experiment: Antibacterial activity against methicillin-resistant Staphylococcus aureus 109244 clinical isolate after 20 to 24 hrs by two-fold microdilution method; format: functional
# [24] = test system: Staphylococcus aureus; experiment: Antibacterial activity against methicillin-resistant Staphylococcus aureus 110325 clinical isolate after 20 to 24 hrs by two-fold microdilution method; format: functional
# [25] = test system: Staphylococcus aureus; experiment: Antibacterial activity against methicillin-resistant Staphylococcus aureus 110414 clinical isolate after 20 to 24 hrs by two-fold microdilution method; format: functional
# [26] = test system: Staphylococcus aureus; experiment: Antibacterial activity against methicillin-resistant Staphylococcus aureus 414244 clinical isolate after 20 to 24 hrs by two-fold microdilution method; format: functional
# [27] = test system: Staphylococcus aureus; experiment: Antibacterial activity against methicillin-resistant Staphylococcus aureus 1012039 clinical isolate after 20 to 24 hrs by two-fold microdilution method; format: functional
# [28] = test system: Staphylococcus aureus; experiment: Antibacterial activity against methicillin-resistant Staphylococcus aureus 1211026 clinical isolate after 20 to 24 hrs by two-fold microdilution method; format: functional
# [29] = Solubility of the compound in water at 25 degC measured after shaking for 4 hrs by UV method; format: physicochemical; settings: buffer, 4 h
# [30] = test system: Staphylococcus aureus; experiment: Antibacterial activity against methicillin-resistant Staphylococcus aureus 1025022 clinical isolate after 20 to 24 hrs by two-fold microdilution method; format: functional
# [31] = test system: Staphylococcus aureus; experiment: Antibacterial activity against methicillin-resistant Staphylococcus aureus 11703 clinical isolate after 20 to 24 hrs by two-fold microdilution method; format: functional
# [32] = test system: Staphylococcus aureus; experiment: Antibacterial activity against methicillin-resistant Staphylococcus aureus 523005 clinical isolate after 20 to 24 hrs by two-fold microdilution method; format: functional
# [33] = test system: Staphylococcus aureus; experiment: Antibacterial activity against methicillin-resistant Staphylococcus aureus 503025 clinical isolate after 20 to 24 hrs by two-fold microdilution method; format: functional
# [34] = test system: Staphylococcus aureus; experiment: Antibacterial activity against methicillin-resistant Staphylococcus aureus 214026 clinical isolate after 20 to 24 hrs by two-fold microdilution method; format: functional
# [35] = test system: Staphylococcus aureus; experiment: Antibacterial activity against methicillin-resistant Staphylococcus aureus 224001 clinical isolate after 20 to 24 hrs by two-fold microdilution method; format: functional
# [36] = test system: Staphylococcus aureus; experiment: Antibacterial activity against methicillin-resistant Staphylococcus aureus 216054 clinical isolate after 20 to 24 hrs by two-fold microdilution method; format: functional
# [37] = test system: Staphylococcus aureus; experiment: Antibacterial activity against methicillin-resistant Staphylococcus aureus 3250299 clinical isolate after 20 to 24 hrs by two-fold microdilution method; format: functional
# [38] = test system: Staphylococcus aureus; experiment: Antibacterial activity against methicillin-resistant Staphylococcus aureus 1029025 clinical isolate after 20 to 24 hrs by two-fold microdilution method; format: functional
# [39] = test system: Staphylococcus aureus; experiment: Antibacterial activity against methicillin-resistant Staphylococcus aureus 20534 clinical isolate after 20 to 24 hrs by two-fold microdilution method; format: functional
# [40] = test system: Staphylococcus aureus; experiment: Antibacterial activity against methicillin-resistant Staphylococcus aureus 121026 clinical isolate after 20 to 24 hrs by two-fold microdilution method; format: functional
# [41] = test system: Staphylococcus aureus; experiment: Antibacterial activity against methicillin-resistant Staphylococcus aureus 1212057-1 clinical isolate after 20 to 24 hrs by two-fold microdilution method; format: functional
# [42] = test system: Staphylococcus aureus; experiment: Antibacterial activity against methicillin-resistant Staphylococcus aureus 112430 clinical isolate after 20 to 24 hrs by two-fold microdilution method; format: functional
# [43] = test system: Staphylococcus aureus; experiment: Antibacterial activity against methicillin-resistant Staphylococcus aureus 625032 clinical isolate after 20 to 24 hrs by two-fold microdilution method; format: functional
# [44] = test system: Staphylococcus aureus; experiment: Antibacterial activity against methicillin-resistant Staphylococcus aureus 519030 clinical isolate after 20 to 24 hrs by two-fold microdilution method; format: functional
# [45] = test system: Escherichia coli; experiment: Antibacterial activity against Escherichia coli ATCC 25922 after 20 to 24 hrs by two-fold microdilution method; format: functional
# [46] = test system: Staphylococcus aureus; experiment: Antibacterial activity against methicillin-resistant Staphylococcus aureus 531220 clinical isolate after 20 to 24 hrs by two-fold microdilution method; format: functional
# [47] = test system: Staphylococcus aureus; experiment: Antibacterial activity against methicillin-resistant Staphylococcus aureus 1207026 clinical isolate after 20 to 24 hrs by two-fold microdilution method; format: functional
compound,measurement,setting,value
CN(C)CCCCCOC(=O)c1c2c(n3cc(Br)ccc13)C(=O)c1ncccc1C2=O,MIC,[1],0.25 mg/L
same,MIC,[2],0.5 mg/L
same,MIC,[3],0.5 mg/L
same,MIC,[4],0.125 mg/L
same,MIC,[5],0.5 mg/L
same,MIC,[6],0.25 mg/L
same,MIC,[7],0.5 mg/L
same,MIC,[8],0.125 mg/L
same,MIC,[9],16 mg/L
same,MIC,[10],4 mg/L
same,MIC,[11],0.125 mg/L
same,MIC,[12],0.25 mg/L
same,MIC,[13],0.5 mg/L
same,MIC,[14],16 mg/L
same,MIC,[15],0.5 mg/L
same,MIC,[16],0.5 mg/L
same,MIC,[17],0.25 mg/L
same,MIC,[18],0.5 mg/L
same,MIC,[19],0.125 mg/L
same,MIC,[20],0.25 mg/L
same,MIC,[21],0.5 mg/L
same,MIC,[22],0.063 mg/L
same,MIC,[23],0.5 mg/L
same,MIC,[24],0.125 mg/L
same,MIC,[25],0.5 mg/L
same,MIC,[26],0.5 mg/L
same,MIC,[27],0.125 mg/L
same,MIC,[28],0.25 mg/L
same,solubility,[29],Insoluble
same,MIC,[30],0.5 mg/L
same,MIC,[31],0.5 mg/L
same,MIC,[32],0.5 mg/L
same,MIC,[33],0.5 mg/L
same,MIC,[34],0.125 mg/L
same,MIC,[35],0.5 mg/L
same,MIC,[36],0.25 mg/L
same,MIC,[37],0.25 mg/L
same,MIC,[38],0.25 mg/L
same,MIC,[39],0.5 mg/L
same,MIC,[40],0.125 mg/L
same,MIC,[41],0.125 mg/L
same,MIC,[42],0.5 mg/L
same,MIC,[43],0.125 mg/L
same,MIC,[44],0.5 mg/L
same,MIC,[45],1 mg/L
same,MIC,[46],0.25 mg/L
same,MIC,[47],0.125 mg/L
